Measured values from US9422240B2, “Partially saturated nitrogen-containing heterocyclic compound” (TAISHO PHARMACEUTICAL CO., LTD, priority 2012, dated 2016).
Counter-ions that a name gives are not always drawn.

Target: human PHD2 (Homo sapiens (Human), UniProt Q9GZT9)
Assay: Test 2: human PHD2 inhibitory activity, fluorescence polarization assay of HIF-1α peptide proline hydroxylation
Assay type: biochemical
Settings: read-out: Percent inhibition (% at 1 μM)
Summary of the method: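 Enzyme from lysate of cells expressing human PHD2 (NM_022051), 40 ng/well, added to compound and 19-residue HIF-1α peptide substrate; 20 min at 30° C., EDTA quench. Prolyl hydroxylation detected by HIF-OH antibody binding via fluorescence polarization; inhibition relative to compound-free wells.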

human PHD2, sequence (Q9GZT9 whole entry): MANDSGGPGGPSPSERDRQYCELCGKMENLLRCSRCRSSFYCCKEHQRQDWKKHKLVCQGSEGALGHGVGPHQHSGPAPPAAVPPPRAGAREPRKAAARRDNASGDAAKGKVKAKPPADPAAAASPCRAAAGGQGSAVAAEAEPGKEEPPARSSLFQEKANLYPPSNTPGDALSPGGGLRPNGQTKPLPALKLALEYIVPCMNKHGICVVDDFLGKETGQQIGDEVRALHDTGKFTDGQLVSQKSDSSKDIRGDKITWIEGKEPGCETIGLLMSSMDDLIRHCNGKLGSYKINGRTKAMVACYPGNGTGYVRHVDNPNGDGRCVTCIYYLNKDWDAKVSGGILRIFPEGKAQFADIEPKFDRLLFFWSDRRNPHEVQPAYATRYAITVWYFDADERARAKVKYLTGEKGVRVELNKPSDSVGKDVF

Row | SMILES | inhibition at 1 µM
1 | C[C@H]1CC(O)=C(C(=O)NCC(=O)O)C(=O)N1Cc1ccc(OCC2CC2)cc1 [Ex. 6-2, N-({(6S)-1-[4-(Cyclopropylmethoxy)benzyl]-4-hydroxy-6-methyl-2-oxo-1,2,5,6-tetrahydro-3-pyridinyl}carbonyl)glycine sodium salt] | 77%

Same assay, conditions: test compound's concentration 1 μM; Test 2, fluorescence polarization assay; read-out: Percent inhibition (% at 1 μM)

Row | inhibition at 1 µM | SMILES
2 | 85% | CN(C)C(=O)c1ccc(-c2ccc(CN3CCC(O)=C(C(=O)NCC(=O)O)C3=O)cc2)cc1 [Ex. 2-32]
3 | 91% | O=C(O)CNC(=O)C1=C(O)C2(CCCCC2)N(Cc2ccc(-c3ccc(Cl)cc3)cc2)C1=O [Ex. 2-33]
4 | 97% | O=C(O)CNC(=O)C1=C(O)CCN(Cc2ccc(-c3ccc(C(=O)O)cc3)cc2)C1=O [Ex. 2-34]
5 | 96% | COc1ccc(-c2ccc(CN3CCC(O)=C(C(=O)NCC(=O)O)C3=O)cn2)cc1 [Ex. 2-35]
6 | 95% | O=C(O)CNC(=O)C1=C(O)CCN(Cc2ccc(-c3ccc(OC(F)(F)F)cc3)nc2)C1=O [Ex. 2-36]
7 | 91% | O=C(O)CNC(=O)C1=C(O)CCN(Cc2ccc(-c3ccc(F)cc3)nc2)C1=O [Ex. 2-37]
8 | 92% | COc1ccc(-c2ccc(CN3CCC(O)=C(C(=O)NCC(=O)O)C3=O)nc2)cc1 [Ex. 2-38]
9 | 93% | O=C(O)CNC(=O)C1=C(O)CCN(Cc2ccc(-c3ccc(OC(F)(F)F)cc3)cn2)C1=O [Ex. 2-39]
10 | 96% | O=C(O)CNC(=O)C1=C(O)CCN(Cc2ccc(-c3ccc(C(F)(F)F)cc3)cn2)C1=O [Ex. 2-40]
11 | 93% | COc1cc(-c2ccc(CN3CCC(O)=C(C(=O)NCC(=O)O)C3=O)cc2)ccn1 [Ex. 2-41]
12 | 96% | COc1ncc(-c2ccc(CN3CCC(O)=C(C(=O)NCC(=O)O)C3=O)cc2)s1 [Ex. 2-42]
13 | 95% | O=C(O)CNC(=O)C1=C(O)CCN(Cc2ccc(-c3cnc(O)s3)cc2)C1=O [Ex. 2-43]
14 | 96% | Cc1ccc(-c2ccc(CN3CCC(O)=C(C(=O)NCC(=O)O)C3=O)nc2)cc1 [Ex. 2-44]
15 | 95% | Cc1ccc(-c2ccc(CN3CCC(O)=C(C(=O)NCC(=O)O)C3=O)cn2)cc1 [Ex. 2-45]
16 | 93% | O=C(O)CNC(=O)C1=C(O)CCN(Cc2ccc(-c3ccc(Cl)cc3)nc2)C1=O [Ex. 2-46]
17 | 100% | Cc1ccc(-c2ccc(CN3CCC(O)=C(C(=O)NCC(=O)O)C3=O)cc2)s1 [Ex. 2-47]
18 | 103% | O=C(O)CNC(=O)C1=C(O)CCN(Cc2ccc(-c3ccc(C4CC4)cc3)nc2)C1=O [Ex. 2-48]
19 | 93% | O=C(O)CNC(=O)C1=C(O)CCN(Cc2ccc(-c3ccc(C4CC4)cc3)cc2)C1=O [Ex. 2-49]
20 | 99% | O=C(O)CNC(=O)C1=C(O)CCN(Cc2ccc(-c3ccc(C4CC4)cc3)cn2)C1=O [Ex. 2-50]
21 | 97% | COc1cccc(-c2ccc(CN3CCC(O)=C(C(=O)NCC(=O)O)C3=O)cn2)c1 [Ex. 2-51]
22 | 95% | COc1ccccc1-c1ccc(CN2CCC(O)=C(C(=O)NCC(=O)O)C2=O)cn1 [Ex. 2-52]
23 | 97% | COc1cncc(-c2ccc(CN3CCC(O)=C(C(=O)NCC(=O)O)C3=O)cc2)c1 [Ex. 2-53]
24 | 87% | COc1ccncc1-c1ccc(CN2CCC(O)=C(C(=O)NCC(=O)O)C2=O)cc1 [Ex. 2-54]

Row | inhibition at 1 µM | SMILES
25 | 97% | NS(=O)(=O)c1ccc(-c2ccc(CN3CCC(O)=C(C(=O)NCC(=O)O)C3=O)cc2)cc1 [Ex. 2-55, N-({4-Hydroxy-2-oxo-1-[(4′-sulfamoyl-4-biphenylyl)methyl]-1,2,5,6-tetrahydro-3-pyridinyl}carbonyl)glycine]
26 | 92% | CS(=O)(=O)c1ccc(-c2ccc(CN3CCC(O)=C(C(=O)NCC(=O)O)C3=O)cc2)cn1 [Ex. 2-56]
27 | 94% | O=C(O)CNC(=O)C1=C(O)CCN(Cc2ccc(-c3ccc(S(=O)(=O)NCCO)cc3)cc2)C1=O [Ex. 2-57]
28 | 92% | O=C(O)CNC(=O)C1=C(O)CCN(Cc2ccc(-c3ccc(C(=O)O)nc3)cc2)C1=O [Ex. 2-58]
29 | 97% | Nc1ccc(-c2ccc(CN3CCC(O)=C(C(=O)NCC(=O)O)C3=O)cc2)cn1 [Ex. 2-59]
30 | 96% | O=C(O)CNC(=O)C1=C(O)CCN(Cc2ccc(-c3ccc(O)nc3)cc2)C1=O [Ex. 2-60]
31 | 92% | Nc1ncc(-c2ccc(CN3CCC(O)=C(C(=O)NCC(=O)O)C3=O)cc2)cn1 [Ex. 2-61]
32 | 72% | O=C(O)CNC(=O)C1=C(O)CCN(Cc2ccc(O)cc2)C1=O [Ex. 4-3, N-{[4-Hydroxy-1-(4-hydroxybenzyl)-2-oxo-1,2,5,6-tetrahydro-3-pyridinyl]carbonyl}glycine]
33 | 91% | O=C(O)CNC(=O)C1=C(O)C2(CCCC2)N(Cc2ccc(-c3ccccc3)cc2)C1=O [Ex. 6-1, N-{[1-(4-Biphenylylmethyl)-4-hydroxy-2-oxo-1-azaspiro[4.4]non-3-en-3-yl]carbonyl}glycine]
34 | 96% | O=C(O)CNC(=O)C1=C(O)C2(CCC2)N(Cc2ccc(-c3ccccc3)cc2)C1=O [Ex. 6-3]
35 | 10% | CC1C(O)=C(C(=O)NCCC(=O)O)C(=O)N1Cc1ccc(-c2ccccc2)cc1 (stereo not drawn) [Ex. 6-4]
36 | 97% | CC1C(O)=C(C(=O)NCC(=O)O)C(=O)N1Cc1ccc(Oc2ccc(C(F)(F)F)cn2)cc1 (stereo not drawn) [Ex. 6-5]
37 | 87% | CC1(C)C(O)=C(C(=O)NCC(=O)O)C(=O)N1Cc1ccc(Oc2ccc(C(F)(F)F)cn2)cc1 [Ex. 6-6]
38 | 86% | O=C(O)CNC(=O)C1=C(O)CN(Cc2ccc(OCC3CC3)cc2)C1=O [Ex. 6-7]
39 | 83% | CC1C(O)=C(C(=O)NCC(=O)O)C(=O)N1Cc1ccc(OCC2CC2)cc1 (stereo not drawn) [Ex. 6-8]
40 | 85% | CC1(C)C(O)=C(C(=O)NCC(=O)O)C(=O)N1Cc1ccc(OCC2CC2)cc1 [Ex. 6-9]
41 | 76% | O=C(O)CNC(=O)C1=C(O)C[C@H](c2ccccc2)N(Cc2ccc(OCC3CC3)cc2)C1=O [Ex. 6-10]
42 | 73% | O=C(O)CNC(=O)C1=C(O)C[C@@H](c2ccccc2)N(Cc2ccc(OCC3CC3)cc2)C1=O [Ex. 6-11]
43 | 67% | CC1CC(O)=C(C(=O)NCC(=O)O)C(=O)N1Cc1ccc(OCC2CC2)cc1 (stereo not drawn) [Ex. 6-12]
44 | 81% | O=C(O)CNC(=O)C1=C(O)CC2(CCOCC2)N(Cc2ccc(OCC3CC3)cc2)C1=O [Ex. 6-13]
45 | 80% | O=C(O)CNC(=O)C1=C(O)CC2(COC2)N(Cc2ccc(OCC3CC3)cc2)C1=O [Ex. 6-14]
46 | 55% | NC(=O)[C@H]1CC(O)=C(C(=O)NCC(=O)O)C(=O)N1Cc1ccc(OCC2CC2)cc1 [Ex. 6-15]
47 | 26% | NC(=O)[C@@H]1CC(O)=C(C(=O)NCC(=O)O)C(=O)N1Cc1ccc(OCC2CC2)cc1 [Ex. 6-16]

Row | inhibition at 1 µM | SMILES
48 | 32% | CC1(C)CC(O)=C(C(=O)NCC(=O)O)C(=O)N1CC1CCN(c2ncccn2)CC1 [Ex. 6-17]
49 | 24% | CC1(C)CC(O)=C(C(=O)NCC(=O)O)C(=O)N1CC1CCN(C(=O)CC2CC2)CC1 [Ex. 6-18]
50 | 72% | O=C(O)CNC(=O)C1=C(O)C[C@H](c2cccnc2)N(Cc2ccc(OCC3CC3)cc2)C1=O [Ex. 6-19]
51 | 84% | O=C(O)CNC(=O)C1=C(O)C[C@@H](c2cccnc2)N(Cc2ccc(OCC3CC3)cc2)C1=O [Ex. 6-20]
52 | 85% | O=C(O)CNC(=O)C1=C(O)C[C@@H](Cc2ccccc2)N(Cc2ccc(OCC3CC3)cc2)C1=O [Ex. 6-21]
53 | 88% | O=C(O)CNC(=O)C1=C(O)C[C@H](Cc2ccccc2)N(Cc2ccc(OCC3CC3)cc2)C1=O [Ex. 6-22]
54 | 85% | O=C(O)CNC(=O)C1=C(O)C2(CCCCC2)CN(Cc2ccc(OCC3CC3)cc2)C1=O [Ex. 6-23]
55 | 78% | O=C(O)CNC(=O)C1=C(O)CC2(CCCCC2)N(Cc2ccc(OCC3CC3)cc2)C1=O [Ex. 6-24]
56 | 49% | CC1(C)CC(O)=C(C(=O)NCC(=O)O)C(=O)N1Cc1ccc(OCC(N)=O)cc1 [Ex. 6-25]
57 | 16% | CC1(C)CC(O)=C(C(=O)NCC(=O)O)C(=O)N1CC1CCN(Cc2ccccc2)CC1 [Ex. 6-26]
58 | 51% | CC(C)[C@H]1CC(O)=C(C(=O)NCC(=O)O)C(=O)N1Cc1ccc(OCC2CC2)cc1 [Ex. 6-27]
59 | 42% | CC(C)[C@@H]1CC(O)=C(C(=O)NCC(=O)O)C(=O)N1Cc1ccc(OCC2CC2)cc1 [Ex. 6-28]
60 | 69% | CC1(C)CC(O)=C(C(=O)NCC(=O)O)C(=O)N1Cc1ccc(OCC2CC2)nc1 [Ex. 6-29]
61 | 45% | O=C(O)CNC(=O)C1=C(O)C[C@H](CO)N(Cc2ccc(OCC3CC3)cc2)C1=O [Ex. 6-30]
62 | 44% | O=C(O)CNC(=O)C1=C(O)C[C@@H](CO)N(Cc2ccc(OCC3CC3)cc2)C1=O [Ex. 6-31]
63 | 4% | CC1(C)CC(O)=C(C(=O)NCC(=O)O)C(=O)N1CC1CN(c2ncccn2)C1 [Ex. 6-32]
64 | 68% | CC1(C)CC(O)=C(C(=O)NCC(=O)O)C(=O)N1Cc1ccc(OCC2CC2)nn1 [Ex. 6-33]
65 | 70% | COC[C@@H]1CC(O)=C(C(=O)NCC(=O)O)C(=O)N1Cc1ccc(OCC2CC2)cc1 [Ex. 6-34]
66 | 60% | CC1(C)CC(O)=C(C(=O)NCC(=O)O)C(=O)N1Cc1cnc(OCC2CC2)cn1 [Ex. 6-35]
67 | 30% | CN(C)C[C@@H]1CC(O)=C(C(=O)NCC(=O)O)C(=O)N1Cc1ccc(OCC2CC2)cc1 [Ex. 6-36]
68 | 97% | O=C(O)CNC(=O)C1=C(O)CC2(CCN(C(=O)c3ccccc3)CC2)N(Cc2ccc(-c3ccccc3)cc2)C1=O [Ex. 7-1, N-{[9-Benzoyl-1-(4-biphenylylmethyl)-4-hydroxy-2-oxo-1,9-diazaspiro[5.5]undec-3-en-3-yl]carbonyl}glycine]
69 | 88% | O=C(O)CNC(=O)C1=C(O)CC2(CCN(Cc3ccccc3)CC2)N(Cc2ccc(-c3ccccc3)cc2)C1=O [Ex. 7-2, N-{[9-Benzyl-1-(4-biphenylylmethyl)-4-hydroxy-2-oxo-1,9-diazaspiro[5.5]undec-3-en-3-yl]carbonyl}glycine trifluoroacetate]
